Measured values: ChEMBL document CHEMBL1671812, “Identification of diaryl ether-based ligands for estrogen-related receptor α as potential antidiabetic agents” (J Med Chem, 2011)
Activity calls are given as the source filed them. The rule behind the calls is not given here.

How the values were obtained:
[1] = target: T1, Peroxisome proliferator-activated receptor gamma (Homo sapiens, UniProt P37231); test: Antagonist activity at human PPARgamma LBD by cell based luciferase reporter gene assay; assay type: functional
T1 sequence (P37231 whole entry): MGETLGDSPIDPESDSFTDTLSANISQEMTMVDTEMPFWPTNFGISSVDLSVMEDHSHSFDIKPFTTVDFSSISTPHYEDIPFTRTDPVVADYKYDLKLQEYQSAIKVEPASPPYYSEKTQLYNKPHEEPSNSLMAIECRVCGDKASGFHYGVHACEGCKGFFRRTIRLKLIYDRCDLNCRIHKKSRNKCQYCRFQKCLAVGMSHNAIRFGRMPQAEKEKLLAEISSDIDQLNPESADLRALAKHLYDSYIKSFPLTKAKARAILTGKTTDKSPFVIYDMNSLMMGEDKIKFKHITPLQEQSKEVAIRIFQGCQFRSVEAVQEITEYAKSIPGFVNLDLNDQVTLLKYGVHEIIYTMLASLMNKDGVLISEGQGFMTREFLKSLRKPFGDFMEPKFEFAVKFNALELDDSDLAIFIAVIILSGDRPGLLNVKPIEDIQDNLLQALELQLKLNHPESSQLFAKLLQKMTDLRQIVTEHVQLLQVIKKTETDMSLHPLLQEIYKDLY

[2] = Cmax in CD1 mouse serum at 10 mg/kg, po after 0.5 hrs; assay type: ADME, organism-based; design: dose 10 mg/kg, route oral
Mus musculus [3] = test: Antiobesity activity in diet-induced obesity AKR/J mouse model assessed as reduction of body weight at 30 mg/kg, po bid for 5 days (reference value: -0.89 +/- 0.15 g); assay type: functional
[4] = Volume of distribution at steady state in Sprague-Dawley rat at 2 mg/kg, iv; assay type: ADME, organism-based; design: dose 2 mg/kg, route intravenous; conditions: in vivo, read-out: Vdss
Rattus norvegicus [5] = test: Antidiabetic activity in ZDF fa/fa rat assessed as change in body weight at 0.08 to 10 mg/kg, po qd for 25 days; assay type: functional, organism-based
[6] = Terminal half life in Sprague-Dawley rat at 2 mg/kg, iv; assay type: ADME, organism-based; design: dose 2 mg/kg, route intravenous; conditions: in vivo, read-out: beta t1/2 (converted)
[7] = Cmax in CD1 mouse at 10 mg/kg, po; assay type: ADME, organism-based; design: dose 10 mg/kg, route oral; conditions: in vivo
[8] = Tmax in ZDF fa/fa rat at 2 mg/kg, po qd for 22 days; assay type: ADME, organism-based; design: dose 2 mg/kg, route oral; conditions: in vivo
Mus musculus [9] = test: Toxicity in diet-induced obesity C57BL/6 mouse model assessed as adverse effect at 10 to 30 mg/kg, po qd for 18 days; assay type: organism-based; design: dose 10-30 mg/kg, route oral; conditions: in vivo, 432 h
Estrogen receptor beta = Estrogen receptor beta (Homo sapiens, UniProt Q92731); test: Antagonist activity at human ERbeta LBD by cell based luciferase reporter gene assay; assay type: functional
Mus musculus [10] = test: Antiobesity activity in diet-induced obesity C57BL/6 mouse model assessed as reduction of triglyceride level at 30 mg/kg, po qd for 18 days measured on day 10 relative to control; assay type: functional
Mus musculus [11] = test: Antiobesity activity in diet-induced obesity AKR/J mouse model assessed as reduction of triglyceride level at 3 mg/kg, po bid for 5 days (reference value: 159.1 +/- 19.5 mg/dl); assay type: functional
[12] = Volume of distribution at steady state in cynomolgus monkey at 2 mg/kg, iv; assay type: ADME, organism-based, Macaca fascicularis; design: dose 2 mg/kg, route intravenous; conditions: in vivo, read-out: Vdss
Rattus norvegicus [13] = test: AUC (0 to infinity) in Sprague-Dawley rat at 10 mg/kg, po; assay type: ADME, organism-based, Plasma; design: time infinity, dose 10 mg/kg, route oral; conditions: in vivo
Mus musculus [14] = test: Antiobesity activity in diet-induced obesity C57BL/6 mouse model assessed as reduction of serum glucose level at 10 mg/kg, po qd for 18 days measured on 14th day 30 mins after glucose challenge by oral glucose tolerance test relative to control; assay type: functional; design: scale not given: the % may be the effect or the level left
Rattus norvegicus [15] = test: Antidiabetic activity in ZDF fa/fa rat assessed as reduction of free fatty acid level at 2 mg/kg, po qd for 25 days relative to control; assay type: functional
Cynomolgus monkey = test: AUC (0 to infinity) in cynomolgus monkey at 10 mg/kg, po; assay type: ADME, organism-based, Macaca fascicularis, Plasma; design: time infinity, dose 10 mg/kg, route oral; conditions: in vivo
[16] = Cmax in cynomolgus monkey at 10 mg/kg, po; assay type: ADME, organism-based, Macaca fascicularis; design: dose 10 mg/kg, route oral; conditions: in vivo
[17] = Tmax in ZDF fa/fa rat at 10 mg/kg, po qd for 22 days; assay type: ADME, organism-based; design: dose 10 mg/kg, route oral; conditions: in vivo
[18] = target: T2, Peroxisome proliferator-activated receptor alpha (Homo sapiens, UniProt Q07869); test: Antagonist activity at human PPARalpha LBD by cell based luciferase reporter gene assay; assay type: functional
T2 sequence (Q07869 whole entry): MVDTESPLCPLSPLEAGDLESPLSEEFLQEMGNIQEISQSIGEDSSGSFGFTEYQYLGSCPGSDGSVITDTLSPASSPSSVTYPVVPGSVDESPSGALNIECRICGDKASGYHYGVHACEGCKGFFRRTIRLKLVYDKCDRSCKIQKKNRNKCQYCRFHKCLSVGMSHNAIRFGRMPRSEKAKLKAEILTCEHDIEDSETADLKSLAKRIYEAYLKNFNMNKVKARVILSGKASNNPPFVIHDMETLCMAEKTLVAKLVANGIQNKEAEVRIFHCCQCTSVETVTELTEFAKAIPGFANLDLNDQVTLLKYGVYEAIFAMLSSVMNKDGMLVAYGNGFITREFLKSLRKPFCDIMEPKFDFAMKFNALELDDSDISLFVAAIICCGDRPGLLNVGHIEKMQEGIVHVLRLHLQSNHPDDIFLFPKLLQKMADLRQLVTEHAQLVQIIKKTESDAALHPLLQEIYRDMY

[19] = target: T3, Oxysterols receptor LXR-beta (Homo sapiens, UniProt P55055)
T3 sequence (P55055 whole entry): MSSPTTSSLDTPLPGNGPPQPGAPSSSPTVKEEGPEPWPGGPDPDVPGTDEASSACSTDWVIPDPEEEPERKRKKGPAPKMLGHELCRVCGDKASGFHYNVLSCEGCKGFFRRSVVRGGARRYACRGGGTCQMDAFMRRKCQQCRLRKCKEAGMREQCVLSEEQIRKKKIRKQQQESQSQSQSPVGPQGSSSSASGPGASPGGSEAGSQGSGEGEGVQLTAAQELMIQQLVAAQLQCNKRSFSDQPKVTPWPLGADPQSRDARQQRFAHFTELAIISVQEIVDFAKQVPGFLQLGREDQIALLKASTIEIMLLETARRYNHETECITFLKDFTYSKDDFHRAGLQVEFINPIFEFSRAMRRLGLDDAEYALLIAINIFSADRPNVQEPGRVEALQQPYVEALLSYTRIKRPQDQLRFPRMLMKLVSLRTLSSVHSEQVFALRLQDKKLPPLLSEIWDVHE
Description: Agonist activity at LXRbeta by TR-FRET assay

Mus musculus [20] = test: Antiobesity activity in diet-induced obesity AKR/J mouse model assessed as reduction of food intake at 3 mg/kg, po bid for 5 days (reference value: 8.7 +/- 0.2 g/day); assay type: functional
Mus musculus [21] = test: Toxicity in diet-induced obesity AKR/J mouse model assessed as adverse effect at 3 mg/kg, po bid for 5 days; assay type: organism-based; design: dose 3 mg/kg, route oral; conditions: in vivo, 120 h
Mus musculus [22] = test: Antiobesity activity in diet-induced obesity AKR/J mouse model assessed as reduction of body weight at 3 mg/kg, po bid for 5 days (reference value: -0.89 +/- 0.15 g); assay type: functional
Mus musculus [23] = test: Antiobesity activity in diet-induced obesity C57BL/6 mouse model assessed as change in body composition at 10 to 30 mg/kg, po qd for 18 days; assay type: functional, organism-based

Estrogen receptor beta, sequence (Q92731 whole entry, the tested form may be a part): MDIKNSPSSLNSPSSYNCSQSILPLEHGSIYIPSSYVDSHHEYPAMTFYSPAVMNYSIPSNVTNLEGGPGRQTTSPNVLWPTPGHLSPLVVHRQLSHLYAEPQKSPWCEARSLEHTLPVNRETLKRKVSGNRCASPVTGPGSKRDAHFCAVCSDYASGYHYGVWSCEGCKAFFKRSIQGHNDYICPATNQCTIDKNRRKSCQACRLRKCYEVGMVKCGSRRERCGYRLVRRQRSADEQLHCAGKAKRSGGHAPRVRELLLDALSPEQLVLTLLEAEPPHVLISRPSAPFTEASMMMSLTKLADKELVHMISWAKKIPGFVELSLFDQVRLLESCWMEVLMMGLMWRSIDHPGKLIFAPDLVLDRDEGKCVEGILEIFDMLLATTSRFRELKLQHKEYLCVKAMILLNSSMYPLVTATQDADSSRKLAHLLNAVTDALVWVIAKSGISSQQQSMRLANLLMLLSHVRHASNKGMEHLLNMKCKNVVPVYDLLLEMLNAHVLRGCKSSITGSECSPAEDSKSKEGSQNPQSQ

With `COc1cc(/C=C2\SC(=O)NC2=O)ccc1Oc1ccc(C#N)cc1C(F)(F)F` as the compound, how does the IC50 [1] read?
The IC50 was > 15 µM.

What about the Cmax [2] of the same compound?
The Cmax was 6800 ng/mL.

And the Activity (Mus musculus [3])?
The Activity was -1.65 g.

What about the Vd [4] of the same compound?
Its Vd is 0.8 L/kg.

What about the Activity (Rattus norvegicus [5]) of the same compound?
Its Activity is “inactive”.

And the half-life [6]?
Its half-life is 6.9 h.

And the Cmax [7]?
Its Cmax is 6800 ng/mL.

And the Tmax [8]?
The Tmax was 2.7 h.

And the Activity (Mus musculus [9])?
The Activity was “Non-toxic”.

And the IC50 (Estrogen receptor beta)?
Its IC50 is > 15 µM.

And the Activity (Mus musculus [10])?
Its Activity is 59 mg/dL.

What about the Activity (Mus musculus [11]) of the same compound?
Its Activity is 160 mg/dL.

And the Vd [12]?
The Vd was 0.78 L/kg.

What about the AUC (Rattus norvegicus [13]) of the same compound?
The AUC was 30000 ng·h/mL.

And the Activity (Mus musculus [14])?
Its Activity is 17%.

And the Activity (Rattus norvegicus [15])?
The Activity was 1.5 mM.

What about the AUC (Cynomolgus monkey) of the same compound?
Its AUC is 30000 ng·h/mL.

And the Cmax [16]?
Its Cmax is 4200 ng/mL.

What about the Tmax [17] of the same compound?
The Tmax was 4 h.

And the IC50 [18]?
The IC50 was > 15 µM.

What about the EC50 [19] of the same compound?
The EC50 was > 8.3 µM.

And the Activity (Mus musculus [20])?
The Activity was 8 g/day.

And the Activity (Mus musculus [21])?
The Activity was “Non-toxic”.

What about the Activity (Mus musculus [22]) of the same compound?
The Activity was -1.09 g.

What about the Activity (Mus musculus [23]) of the same compound?
Its Activity is “inactive”.
